Data on 57 compounds can be found in ChEMBL document CHEMBL5052852, “Substituted hydantoinamides as adamts7 antagonists” (2021).

Structures are written as SMILES.

Assay [1] is described as follows: Inhibition of recombinant rat/human ADAMTS7 hybrid using HiLyteFluor-488 DELSSMVLELRGLRT-K(QXL520)-E-NH2 as substrate incubated for 120 mins and measured by FRET assay.
Assay [2] can be described thus: Inhibition of recombinant rat/human ADAMTS12 hybrid using HiLyteFluor-488 DELSSMVLELRGLRT-K(QXL520)-E-NH2 as substrate incubated for 120 mins and measured by FRET assay.

One may read the IC50 as the concentration that gives 50% inhibition. In the case of `O=C1NC(=O)C(CNC(=O)c2cnn(-c3ccc(F)c(Cl)c3)n2)(c2nccs2)N1` (racemic), the IC50 in assay [1] was 35 nM; in assay [2], 1200 nM.
The matching figures for `O=C1NC(=O)[C@](CNC(=O)c2cnn(-c3ccc(C(F)(F)F)c(F)c3)n2)(C2CC2)N1`: 120 nM and 4600 nM.
As to `CC(C)(C)C1(CNC(=O)c2cnc(-c3ccccc3)o2)NC(=O)NC1=O` (racemic), the IC50 in assay [1] was found to be 480 nM; in assay [2], 50000 nM.
Taken in the same sequence, the figures for `CC(C)C1(CNC(=O)c2cnn(-c3cccc(F)c3)n2)NC(=O)NC1=O` (racemic) were 46 nM and 4500 nM.
For `CCCC1(CNC(=O)c2cnn(-c3ccc(F)cc3)n2)NC(=O)NC1=O` (racemic), the figures for the 50% inhibitory concentration (IC50) in assay [1] and in assay [2] were 170 nM and 19000 nM, respectively.
For `O=C1NC(=O)C(CNC(=O)c2cnn(-c3ccc(F)cc3)n2)(C2CCCCC2)N1` (centres undefined), the results for the IC50 in assay [1] and in assay [2] were 14 nM and 4100 nM, respectively.
On to `O=C1NC(=O)C(CNC(=O)c2cnn(-c3ccc(F)c(F)c3)n2)(c2nccs2)N1` (centres undefined), for which the results for the IC50 in assay [1] and in assay [2] were 7 nM and 310 nM, respectively.
The matching figures for `O=C1NC(=O)[C@](CNC(=O)c2cnn(-c3cnsc3)n2)(C2CC2)N1`: 230 nM and 7400 nM.
Taken in the same sequence, the figures for `Cc1ccccc1-n1ncc(C(=O)NC[C@@]2(C3CC3)NC(=O)NC2=O)n1` were 980 nM and 12000 nM.
The matching figures for `O=C1NC(=O)[C@](CNC(=O)c2cnn(-c3ccc(OC(F)(F)F)cc3)n2)(C2CC2)N1`: 190 nM and over 50000 nM.
Take `Cn1ccnc1C1(CNC(=O)c2cnn(-c3ccc(F)cc3)n2)NC(=O)NC1=O` (stereo in doubt): the values for the IC50 in assay [1] and in assay [2] were 2 nM and 130 nM, respectively.
The matching figures for `CC1(CNC(=O)c2cnn(-c3ccc(F)cc3)n2)NC(=O)NC1=O` (racemic): 560 nM and 5000 nM.
As for `Cc1ncsc1C1(CNC(=O)c2cnn(-c3ccc(F)cc3)n2)NC(=O)NC1=O` (racemic), the IC50 in assay [1] is 37 nM; in assay [2] it was 2500 nM.
Turning to `CC(C)C1(CNC(=O)c2cnn(-c3cccc(C#N)c3)n2)NC(=O)NC1=O` (racemic), the IC50 in assay [1] amounted to 170 nM; in assay [2], 6000 nM.
The matching figures for `O=C1NC(=O)C(CNC(=O)c2cnn(-c3ccc(F)cc3)n2)(CC2CC2)N1` (racemic): 240 nM and 50000 nM.
The matching figures for `CC1(CNC(=O)c2cnn(-c3ccc(F)cc3)n2)NC(=O)NC1=O` (stereo in doubt): 83 nM and 8900 nM.
The matching figures for `CC(C)(C)C1(CNC(=O)c2cnn(-c3cccc(F)c3)n2)NC(=O)NC1=O` (racemic): 260 nM and 6600 nM.
As to `CCCCC1(CNC(=O)c2cnn(-c3ccccc3)n2)NC(=O)NC1=O` (racemic), the IC50 came out at 89 nM in assay [1] and 15000 nM in assay [2].
Taken in the same sequence, the figures for `O=C1NC(=O)[C@](CNC(=O)c2cnn(-c3ccccc3)n2)(C2CC2)N1` were 69 nM and 1450 nM.
As to `Cc1cccc(-n2ncc(C(=O)NC[C@@]3(C4CC4)NC(=O)NC3=O)n2)c1`, the IC50 in assay [1] was 170 nM; in assay [2], 2200 nM.
Taken in the same sequence, the figures for `CC(C)(C)C1(CNC(=O)c2cnn(-c3ccccc3)c2)NC(=O)NC1=O` (racemic) were 550 nM and 5600 nM.
Consider `CC(C)C1(CNC(=O)c2cnn(-c3ccc(Cl)c(F)c3)n2)NC(=O)NC1=O` (stereo in doubt), for which the IC50 in assay [1] was determined as 7 nM; in assay [2], 1000 nM.
The matching figures for `O=C1NC(=O)C(CNC(=O)c2cnn(-c3ccccc3)n2)(c2ccccn2)N1` (stereo in doubt): 10 nM and 2800 nM.
Take `O=C1NC(=O)[C@](CNC(=O)c2cnn(-c3ccccc3F)n2)(C2CC2)N1`: the IC50 worked out at 180 nM in assay [1] and 7600 nM in assay [2].
Taken in the same sequence, the figures for `O=C1NC(=O)[C@](CNC(=O)c2cnn(-c3ccc(Cl)cc3)n2)(C2CC2)N1` were 26 nM and 480 nM.
Taken in the same sequence, the figures for `O=C1NC(=O)C(CNC(=O)c2cnn(-c3ccc(F)cc3)n2)(c2ccccn2)N1` (racemic) were 10 nM and 3000 nM.
Take `O=C1NC(=O)[C@](CNC(=O)c2cnn(-c3cccc(F)c3)n2)(C2CC2)N1`: the IC50 in assay [1] was determined as 13 nM; in assay [2] it was 580 nM.
Taken in the same sequence, the figures for `Cn1nccc1C1(CNC(=O)c2cnn(-c3ccc(F)cc3)n2)NC(=O)NC1=O` (racemic) were 10 nM and 2400 nM.
Taken in the same sequence, the figures for `N#Cc1ccc(-n2ncc(C(=O)NC[C@@]3(C4CC4)NC(=O)NC3=O)n2)cc1` were 40 nM and 17000 nM.
Consider `Cn1ccnc1C1(CNC(=O)c2cnn(-c3ccc(Cl)c(F)c3)n2)NC(=O)NC1=O` (centres undefined), for which the IC50 in assay [1] was 2 nM; in assay [2], 41 nM.
Taken in the same sequence, the figures for `O=C1NC(=O)C(CNC(=O)c2cnn(-c3ccc(F)cc3)n2)(c2cccnc2)N1` (racemic) were 30 nM and 4500 nM.
Taken in the same sequence, the figures for `CCCC1(CNC(=O)c2cnn(-c3ccccc3)n2)NC(=O)NC1=O` (racemic) were 240 nM and 19000 nM.
For `O=C1NC(=O)[C@](CNC(=O)c2cnn(-c3cc(F)c(F)c(F)c3)n2)(C2CC2)N1`, the figures for the IC50 in assay [1] and in assay [2] were 25 nM and 1100 nM, respectively.
Taken in the same sequence, the figures for `O=C1NC(=O)[C@](CNC(=O)c2cnn(-c3ccc(F)cc3F)n2)(C2CC2)N1` were 41 nM and 4250 nM.
The matching figures for `O=C1NC(=O)C(CNC(=O)c2cnn(-c3cccc(Cl)c3)n2)(C2CCC2)N1` (centres undefined): 48 nM and 2200 nM.
With `O=C1NC(=O)C(CNC(=O)c2cnn(-c3ccc(F)cc3)n2)(C2CC(F)(F)C2)N1` (racemic), the IC50 in assay [1] was 220 nM; in assay [2], over 50000 nM.
Consider `CCCCC1(CNC(=O)c2cnn(-c3ccccc3)n2)NC(=O)NC1=O` (stereo in doubt), for which the IC50 came to 191 nM in assay [1] and 19000 nM in assay [2].
Taken in the same sequence, the figures for `O=C1NC(=O)C(CNC(=O)c2nc(-c3ccccc3)no2)(CC2CC2)N1` (centres undefined) were 250 nM and 2900 nM.
The matching figures for `O=C1NC(=O)C(CNC(=O)c2cnn(-c3ccccc3)n2)(C2CCCC2)N1` (racemic): 191 nM and 50000 nM.
Taken in the same sequence, the figures for `CCCCC1(CNC(=O)c2cnn(-c3ccc(F)cc3)n2)NC(=O)NC1=O` (racemic) were 120 nM and 8300 nM.
As to `O=C1NC(=O)[C@](CNC(=O)c2cnn(-c3ccc(F)c(F)c3)n2)(C2CC2)N1`, the IC50 came to 7 nM in assay [1] and 175 nM in assay [2].
As to `O=C1NC(=O)[C@](CNC(=O)c2cnn(-c3ncccc3F)n2)(C2CC2)N1`, the results for the IC50 in assay [1] and in assay [2] were 7 nM and 14000 nM, respectively.
Consider `O=C1NC(=O)[C@](CNC(=O)c2cnn(-c3ccc(F)cn3)n2)(C2CC2)N1`, for which the IC50 in assay [1] is 140 nM; in assay [2], 4750 nM.
For the compound `O=C1NC(=O)[C@](CNC(=O)c2cc(-c3cnn(CC4CC4)c3)no2)(C2CC2)N1`, the IC50 in assay [1] is 550 nM; in assay [2] it was 50000 nM.
The matching figures for `O=C1NC(=O)C(CNC(=O)c2cnn(-c3ccc(F)c(F)c3)n2)(C2CCC2)N1` (centres undefined): 6 nM and 890 nM.
The matching figures for `Cn1ccnc1C1(CNC(=O)c2cnn(-c3ccccc3)n2)NC(=O)NC1=O` (racemic): 4 nM and 360 nM.
Take `O=C1NC(=O)[C@](CNC(=O)c2cnn(-c3ccccc3Cl)n2)(C2CC2)N1`: the IC50 stood at 470 nM in assay [1] and 10000 nM in assay [2].
Taken in the same sequence, the figures for `N#Cc1cccc(-n2ncc(C(=O)NCC3(C4CCC4)NC(=O)NC3=O)n2)c1` (centres undefined) were 78 nM and 4000 nM.
As for `CS(=O)(=O)c1ccc(-n2ncc(C(=O)NC[C@@]3(C4CC4)NC(=O)NC3=O)n2)cc1`, the IC50 in assay [1] was determined as 870 nM; in assay [2], 67000 nM.
With `CC(C)(C)C1(CNC(=O)c2cnn(-c3ccccc3)n2)NC(=O)NC1=O` (racemic), the figures for the IC50 in assay [1] and in assay [2] were 70 nM and 15000 nM, respectively.
Taken in the same sequence, the figures for `O=C1NC(=O)[C@](CNC(=O)c2nnc(-c3ccc(F)cc3)o2)(C2CC2)N1` were 350 nM and 12000 nM.
The matching figures for `O=C1NC(=O)C(CNC(=O)c2cnn(-c3ccc(F)cc3)n2)(c2ccccc2)N1` (racemic): 69 nM and over 50000 nM.
Taken in the same sequence, the figures for `Cn1ccnc1C1(CNC(=O)c2cnn(-c3cc(F)c(F)c(F)c3)n2)NC(=O)NC1=O` (racemic) were 5 nM and 200 nM.
In the case of `O=C1NC(=O)C(CNC(=O)c2cnn(-c3ccc(F)cc3)n2)(C2CCC2)N1` (racemic), the IC50 in assay [1] turned out to be 98 nM; in assay [2], 35000 nM.
The matching figures for `O=C1NC(=O)C(CNC(=O)c2cnn(-c3ccc(F)cc3)n2)(C2(F)CC2)N1` (racemic): 190 nM and 7900 nM.
The matching figures for `Cn1ccnc1C1(CNC(=O)c2cnn(-c3ccc(F)cc3)n2)NC(=O)NC1=O` (racemic): 4 nM and 320 nM.
For `Cn1ccnc1C1(CNC(=O)c2cnn(-c3ccc(F)c(F)c3)n2)NC(=O)NC1=O` (centres undefined), the IC50 came to 3 nM in assay [1] and 46 nM in assay [2].
